Tests used:
[1] = target: human serum albumin (HSA) (Homo sapiens, UniProt P02768); test: SPR equilibrium binding of carotenoids to immobilized HSA
β-lactoglobulin (LG) = target: T1, β-lactoglobulin (LG) (Bos taurus, UniProt P02754); test: SPR equilibrium binding of carotenoids to immobilized LG
T1 sequence (P02754 17-178): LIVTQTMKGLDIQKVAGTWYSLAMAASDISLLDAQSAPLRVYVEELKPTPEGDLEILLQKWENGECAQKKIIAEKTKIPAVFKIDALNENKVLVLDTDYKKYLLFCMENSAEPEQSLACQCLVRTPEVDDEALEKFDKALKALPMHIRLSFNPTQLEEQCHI

[2] = target: T2, StARD1 protein binding domain (residues 63–285) (Homo sapiens, UniProt P49675); test: FastStep SPR equilibrium binding of carotenoids to immobilized StARD1
T2 sequence (P49675 63-285): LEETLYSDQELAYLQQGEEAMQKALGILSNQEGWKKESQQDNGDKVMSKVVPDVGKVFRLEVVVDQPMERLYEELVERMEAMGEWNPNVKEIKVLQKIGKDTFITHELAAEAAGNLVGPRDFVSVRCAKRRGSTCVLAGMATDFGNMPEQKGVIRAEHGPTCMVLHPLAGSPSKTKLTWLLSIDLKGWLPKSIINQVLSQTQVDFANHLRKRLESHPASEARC

human serum albumin (HSA), sequence (P02768 25-609): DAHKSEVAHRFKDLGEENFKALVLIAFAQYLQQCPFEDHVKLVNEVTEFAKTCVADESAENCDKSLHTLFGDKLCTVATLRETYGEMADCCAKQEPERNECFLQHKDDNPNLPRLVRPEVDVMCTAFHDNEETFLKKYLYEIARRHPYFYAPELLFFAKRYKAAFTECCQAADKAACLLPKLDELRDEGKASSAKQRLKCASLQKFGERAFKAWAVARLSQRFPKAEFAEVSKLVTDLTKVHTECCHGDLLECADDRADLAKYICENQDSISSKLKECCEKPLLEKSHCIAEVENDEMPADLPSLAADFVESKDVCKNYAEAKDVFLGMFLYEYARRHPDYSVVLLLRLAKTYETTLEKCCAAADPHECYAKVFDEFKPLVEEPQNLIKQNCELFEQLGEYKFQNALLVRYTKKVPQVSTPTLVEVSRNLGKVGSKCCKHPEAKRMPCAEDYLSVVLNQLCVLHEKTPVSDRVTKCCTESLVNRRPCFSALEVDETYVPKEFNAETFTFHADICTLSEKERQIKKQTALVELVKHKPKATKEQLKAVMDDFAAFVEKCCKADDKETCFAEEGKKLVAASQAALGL

Kd [1] [nM] | Kd (β-lactoglobulin (LG)) [nM] | Kd [2] [nM] | Structure (SMILES)
1560 ± 30 | 1900 ± 50 | 1960 ± 90 | CC1=C(/C=C/C(C)=C/C=C/C(C)=C/C=C/C=C(C)/C=C/C=C(C)/C=C/C2=C(C)C(=O)[C@@H](O)CC2(C)C)C(C)(C)C[C@H](O)C1=O [Astaxanthin, (3S, 3′S)-astaxanthin]
1160 ± 40 | 2480 ± 80 | 1150 ± 60 | CC1=C[C@H](O)CC(C)(C)[C@H]1/C=C/C(C)=C/C=C/C(C)=C/C=C/C=C(C)/C=C/C=C(C)/C=C/C1=C(C)C[C@@H](O)CC1(C)C [Lutein, (3R, 3′R, 6′R)-lutein]
1600 ± 50 | 2300 ± 20 | 1320 ± 90 | CC1=C(/C=C/C(C)=C/C=C/C(C)=C/C=C/C=C(C)/C=C/C=C(C)/C=C/C2=C(C)C[C@@H](O)CC2(C)C)C(C)(C)C[C@H](O)C1 [Zeaxanthin, (3R, 3′R)-zeaxanthin]
1530 ± 20 | 2400 ± 50 | 1790 ± 80 | CC1=C(/C=C/C(C)=C/C=C/C(C)=C/C=C/C=C(C)/C=C/C=C(C)/C=C/C2=C(C)CCCC2(C)C)C(C)(C)CCC1 [β-Carotene]

Reference: paper PMC3289994 (Archives of Biochemistry and Biophysics, 2012)
